Patent US9328374B2, “Selective culture medium and method for detecting carbapenem-resistant bacteria in a test sample” (Institut National de la Sante et de la Recherche Medicale …, priority 2011, dated 2016)

Tested on: K. pneumoniae
Test: MIC of imipenem, ertapenem and meropenem
Type: cell-based, Klebsiella pneumoniae

Measured: MIC

C[C@@H](O)[C@H]1C(=O)N2C(C(=O)O)=C(SCCN=CN)C[C@H]12 [IPM, imipenem]
16 µg/mL: K. pneumoniae A28006, KPC-2 + TEM-1 + CTX-M-2 + SHV-11 | K. pneumoniae LIB, OXA-48
0.75 µg/mL: K. pneumoniae KIE, NDM-1 + SHV-38 + CMY-16 + OXA-10 | K. pneumoniae LEG (CTX-M-15 + TEM-1 + SHV-12) | K. pneumoniae LEG, CTX-M-15 + TEM-1 + SHV-12, non-carbapenemase producer, porin deficiency | K. pneumoniae MUS (KPC-2 + TEM-1 + SHV-11 + SHV-12) | K. pneumoniae MUS, KPC-2 + TEM-1 + SHV-11 + SHV-12 | K. pneumoniae OM2 (NDM-1 + TEM-1 + CTX-M-3 + SHV-11 + OXA-1) | K. pneumoniae OM2, NDM-1 + TEM-1 + CTX-M-3 + SHV-11 + OXA-1 | K. pneumoniae TIK, OXA-48 | K. pneumoniae VSG (OXA-48 + TEM-1 + CTX-M-15 + OXA-1) | K. pneumoniae VSG, OXA-48 + TEM-1 + CTX-M-15 + OXA-1 | strain K. pneumoniae MUS, KPC-2 + TEM-1 + SHV-11 + SHV-12 | strain K. pneumoniae OM2, NDM-1 + TEM-1 + CTX-M-3 + SHV-11 + OXA-1 | strain K. pneumoniae VSG, OXA-48 + TEM-1 + CTX-M-15 + OXA-1
1.5 µg/mL: K. pneumoniae 2 OLA (NDM-1 + OXA-1) | K. pneumoniae 0709121, IMP-1 | K. pneumoniae 0709125, IMP-1 + TEM-1 + SHV-12 | K. pneumoniae BED (CTX-M-15 + TEM-1 + SHV-1; Table 8: SHV-11) | K. pneumoniae BED, CTX-M-15 + TEM-1 + SHV-11, non-carbapenemase producer, porin deficiency | K. pneumoniae HPA, OXA-48 + TEM-1 + CTX-M-15 + OXA-1 | K. pneumoniae MEK (CTX-M-15 + SHV-11) | K. pneumoniae MEK, CTX-M-15 + SHV-11, non-carbapenemase producer, porin deficiency | K. pneumoniae OM15, NDM-1 + CTX-M-15 + SHV-130 + OXA-1 | K. pneumoniae OMA419 (NDM-1 + OXA-1) | K. pneumoniae OMA419, NDM-1 + OXA-1 | strain K. pneumoniae BED, CTX-M-15 + TEM-1 + SHV-11, non-carbapenemase producer | strain K. pneumoniae OMA419, NDM-1 + OXA-1
3 µg/mL: K. pneumoniae OM13, NDM-1 + TEM-1 + CTX-M-15 + SHV-28 + OXA-1 + OXA-9 | K. pneumoniae SHM (CTX-M-15 + TEM-1 + SHV-11) | K. pneumoniae SHM, CTX-M-15 + TEM-1 + SHV-11, non-carbapenemase producer, porin deficiency
4 µg/mL: K. pneumoniae COL (KPC-2 + TEM-1 + SHV-1 + CTX-M-15) | K. pneumoniae LOU, OXA-48 | K. pneumoniae OM4, NDM-1 + TEM-1 + CTX-M-15 + SHV-12 + OXA-9 | K. pneumoniae OM19, NDM-1 + CTX-M-15 + SHV-12 + OXA-1 | K. pneumoniae YC, KPC-2 + TEM-1 + SHV-11 + SHV-12 + OXA-9
1 µg/mL: K. pneumoniae 6642 GEN (NDM-1 + CTX-M-15 + OXA-1 + OXA-10) | K. pneumoniae 6642 GEN, NDM-1 + CTX-M-15 + OXA-1 + OXA-10 | K. pneumoniae ALE (CTX-M-15 + SHV-1) | K. pneumoniae ALE, CTX-M-15 + SHV-1, non-carbapenemase producer, porin deficiency | K. pneumoniae BEL (OXA-48) | K. pneumoniae BEL, OXA-48 | K. pneumoniae BER (TEM-1 + SHV-28) | K. pneumoniae BER, SHV-28 + TEM-1, non-carbapenemase producer, porin deficiency | K. pneumoniae HOL (OXA-181 + CTX-M-15) | K. pneumoniae HOL, OXA-181 + CTX-M-15 | K. pneumoniae IND (NDM-1 + OXA-1 + CTX-M-15) | K. pneumoniae KI2, NDM-1 + CTX-M-15 + OXA-1 | K. pneumoniae MAD (VIM-1 + CTX-M-3) | K. pneumoniae MAD, VIM-1+ CTX-M-3 | K. pneumoniae RAM (OXA-48) | K. pneumoniae RAM, OXA-48 | K. pneumoniae TUR (IMP-1) | K. pneumoniae TUR, IMP-1 | K. pneumoniae TWA, IMP-8 | strain K. pneumoniae ALE, CTX-M-15 + SHV-1, non-carbapenemase producer | strain K. pneumoniae BEL, OXA-48 | strain K. pneumoniae BER, SHV-28 + TEM-1, non-carbapenemase producer | strain K. pneumoniae HOL, OXA-181 + CTX-M-15
32 µg/mL: K. pneumoniae DUW, OXA-48 + TEM-1 + CTX-M-15 + SHV-28
24 µg/mL: K. pneumoniae 588, KPC-2 + TEM-1 + SHV-11 + OXA-9
0.38 µg/mL: K. pneumoniae BEN (OXA-48 + TEM-1 + CTX-M-15 + SHV-28) | K. pneumoniae BEN, OXA-48 + TEM-1 + CTX-M-15 + SHV-28 | K. pneumoniae BEY (OXA-48 + CTX-M-15 + TEM-1) | K. pneumoniae BEY, OXA-48 + TEM-1 + CTX-M-15 | K. pneumoniae BOU, OXA-48 | K. pneumoniae CHA (OXA-48 + TEM-1) | K. pneumoniae CHA, OXA-48 + TEM-1 | K. pneumoniae DAL (OXA-48 + CTX-M-15 + TEM-1) | K. pneumoniae DAL, OXA-48 + TEM-1 + CTX-M-15 | K. pneumoniae ROB (OXA-48 + CTX-M-15 + TEM-1) | K. pneumoniae VER, OXA-48 + TEM-1 + CTX-M-15 + SHV-11 | strain K. pneumoniae BEN, OXA-48 + TEM-1 + CTX-M-15 + SHV-28
0.19 µg/mL: K. pneumoniae 0227, SHV-1, non-carbapenemase producer | K. pneumoniae 7725 (SHV-1) | K. pneumoniae 7725, SHV-1, non-carbapenemase producer | strain K. pneumoniae 7725, SHV-1, non-carbapenemase producer
0.25 µg/mL: K. pneumoniae 648236 (SHV-2a) | K. pneumoniae 648236, SHV-2a, non-carbapenemase producer, porin deficiency | K. pneumoniae SHI (CTX-M-15 + TEM-1 + SHV-1) | K. pneumoniae SHI, CTX-M-15 + TEM-1 + SHV-11, non-carbapenemase producer, porin deficiency | K. pneumoniae SIC (OXA-48 + CTX-M-15 + SHV-28) | K. pneumoniae SIC, OXA-48 + CTX-M-15 + SHV-28 | strain K. pneumoniae 648236, SHV-2a, non-carbapenemase producer | strain K. pneumoniae SIC, OXA-48 + CTX-M-15 + SHV-28
2 µg/mL: K. pneumoniae EGY (OXA-48 + CTX-M-15) | K. pneumoniae EGY, OXA-48 + CTX-M-15 | K. pneumoniae OM8, NDM-1 + TEM-1 + CTX-M-15 + SHV-11 + OXA-1
0.12 µg/mL: K. pneumoniae 1025 (CTX-M-14 + TEM-1 + SHV-11) | K. pneumoniae 1025, CTX-M-14 + TEM-1 + SHV-11, non-carbapenemase producer | K. pneumoniae KDH (DHA-2) | K. pneumoniae KDH, DHA-2, non-carbapenemase producer, overexpressed AmpC | K. pneumoniae KPN (CTX-M-15) | K. pneumoniae KPN, CTX-M-15, non-carbapenemase producer
8 µg/mL: K. pneumoniae 0709124, IMP-1 + TEM-15 | K. pneumoniae COO (CTX-M-15 + SHV28) | K. pneumoniae COO, CTX-M-15 + SHV-28, non-carbapenemase producer, porin deficiency | K. pneumoniae KAM, KPC-3 + TEM-1 + SHV-11 | K. pneumoniae OM16, NDM-1 + CTX-M-15 + OXA-1 + OXA-181 | K. pneumoniae SIM (CTX-M-15 + TEM-1 + SHV-1) | K. pneumoniae SIM, CTX-M-15 + TEM-1 + SHV-1, non-carbapenemase producer, porin deficiency
6 µg/mL: K. pneumoniae FOS (CTX-M-15 + TEM-1 + SHV-11) | K. pneumoniae FOS, CTX-M-15 + TEM-1 + SHV-11, non-carbapenemase producer, porin deficiency | K. pneumoniae GES, KPC-2 + TEM-1 + SHV-11
0.5 µg/mL: K. pneumoniae 1022, SHV-2a + SHV-28, non-carbapenemase producer | K. pneumoniae 10112, CTX-M-15 + TEM-1 + SHV-11, non-carbapenemase producer | K. pneumoniae 0709127, IMP-1 + TEM-1 | K. pneumoniae AEL, OXA-48 + CTX-M-15 + SHV-28 + OXA-1 | K. pneumoniae AMS (OXA-48 + TEM-1 + CTX-M-15 + OXA-1) | K. pneumoniae AMS, OXA-48 + TEM-1 + CTX-M-15 + OXA-1 | K. pneumoniae BAJ (OXA-48 + TEM-1 + CTX-M-15 + SHV-28) | K. pneumoniae BAJ, OXA-48 + TEM-1 + CTX-M-15 + SHV-28 | K. pneumoniae BIC (OXA-48) | K. pneumoniae BIC, OXA-48 | K. pneumoniae ELK (OXA-48 + TEM-1 + CTX-M-15 + SHV-11) | K. pneumoniae ELK, OXA-48 + TEM-1 + CTX-M-15 + SHV-11 | K. pneumoniae ENN, VIM-1+ SHV-5 | K. pneumoniae OM11, OXA-48 + TEM-1 + CTX-M-14 | K. pneumoniae OM14, OXA-48 + TEM-1 | K. pneumoniae OMA (OXA-181 + CTX-M-15 + OXA-1) | K. pneumoniae OMA, OXA-181 + CTXM-15 + OXA-1 | K. pneumoniae ROU (OXA-48 + CTX-M-15) | K. pneumoniae ROU, OXA-48 + CTX-M-15 | K. pneumoniae SCO (OXA-48) | K. pneumoniae SCO, OXA-48 | K. pneumoniae TAW, IMP-8 + SHV-12 | strain K. pneumoniae AMS, OXA-48 + TEM-1 + CTX-M-15 + OXA-1 | strain K. pneumoniae BAJ, OXA-48 + TEM-1 + CTX-M-15 + SHV-28 | strain K. pneumoniae ELK, OXA-48 + TEM-1 + CTX-M-15 + SHV-11 | strain K. pneumoniae OMA, OXA-181 + CTXM-15 + OXA-1 | strain K. pneumoniae ROU, OXA-48 + CTX-M-15 | strain K. pneumoniae SCO, OXA-48
>32 µg/mL: K. pneumoniae 1 OMA (NDM-1 + CTX-M-15 + OXA-1 + OXA-9) | K. pneumoniae 7 AFR (NDM-1 + OXA-1 + CTX-M-15 + CMY-6 + TEM-1) | K. pneumoniae 7AFR, NDM-1 + TEM-1 + CTX-M-15 + CMY-6 + OXA-1 | K. pneumoniae 2303, KPC-2 + SHV-11 | K. pneumoniae 0404020, VIM-1+ SHV-5 | K. pneumoniae 0404024, VIM-1 | K. pneumoniae 0511135, VIM-1+ SHV-12 | K. pneumoniae A33504, KPC-2 + TEM-1 + SHV-11 + CTX-M-2 + OXA-9 | K. pneumoniae DIA, OXA-48 + TEM-1b + CTX-M-15 + SHV-11 + OXA-1 | K. pneumoniae LIB (OXA-48) | K. pneumoniae LIE, KPC-2 + TEM-2 + OXA-9 | K. pneumoniae OMA601, NDM-1 + CTX-M-15 + OXA-1 + OXA-9 | K. pneumoniae UK (NDM-1 + CTX-M-15 + CMY-4 + OXA-1) | K. pneumoniae UK, NDM-1 + CTX-M-15 + CMY-4 + OXA-1
12 µg/mL: K. pneumoniae 6759 GEN (NDM-1 + CTX-M-15 + OXA-1 + OXA-9 + OXA-10 + CMY16) | K. pneumoniae 6759 GEN, NDM-1 + CTX-M-15 + CMY-16 + OXA-1 + OXA-9 + OXA-10
